Data reported in paper PMC4261083, “An atypical residue in the pore of Varroa destructor GABA-activated RDL receptors affects picrotoxin block and thymol modulation” (Insect Biochemistry and Molecular Biology, 2014).
Substitutions are numbered along the chain they refer to.

How the values were obtained:
Assay in all cases: GABA activation of RDL receptors, two electrode voltage clamp in Xenopus oocytes
Type in all cases: cell-based
[1] = biological target: T1, T6′M mutant Drosophila RDL receptor (Drosophila melanogaster, UniProt P25123, T305M)
T1 construct: expressed in transfected cells; host or cells: Xenopus laevis oocytes injected with cRNA
T1 sequence (P25123 45-606 T305M): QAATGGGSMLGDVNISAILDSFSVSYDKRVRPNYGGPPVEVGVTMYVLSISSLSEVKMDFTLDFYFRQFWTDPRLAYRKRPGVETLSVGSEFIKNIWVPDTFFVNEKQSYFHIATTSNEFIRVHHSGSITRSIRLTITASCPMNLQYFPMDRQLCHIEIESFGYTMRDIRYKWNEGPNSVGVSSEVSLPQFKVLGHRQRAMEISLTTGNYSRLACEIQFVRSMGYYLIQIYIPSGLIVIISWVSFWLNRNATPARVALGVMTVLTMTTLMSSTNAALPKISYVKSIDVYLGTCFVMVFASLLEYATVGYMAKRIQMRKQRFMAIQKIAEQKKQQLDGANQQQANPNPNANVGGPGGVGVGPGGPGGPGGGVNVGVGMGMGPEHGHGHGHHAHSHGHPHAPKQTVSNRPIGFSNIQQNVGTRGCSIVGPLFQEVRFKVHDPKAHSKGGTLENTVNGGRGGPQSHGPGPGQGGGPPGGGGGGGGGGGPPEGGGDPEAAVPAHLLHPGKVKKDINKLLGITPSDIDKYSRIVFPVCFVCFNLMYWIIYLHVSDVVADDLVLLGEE
Protocol: (§1) X. laevis oocyte-positive females were purchased from NASCO (Fort Atkinson, Wisconsin, USA) and maintained according to standard methods. Harvested stage V-VI Xenopus oocytes were washed in four changes of ND96 (96 mM NaCl, 2 mM KCl, 1 mM MgCl2, 1 mM CaCl2, 5 mM HEPES, pH 7.5), de-folliculated in 1.5 mg ml^−1 collagenase Type 1A for approximately 2 h, washed again in four changes of ND96 and stored in ND96 containing 2.5 mM sodium pyruvate, 0.7 mM theophylline and […].
(§2) Site directed mutagenesis was performed with the QuikChange mutagenesis kit (Agilent, La Jolla, CA). cRNA was transcribed in vitro from linearised pGEMHE cDNA template using the mMessage mMachine T7 Transcription kit (Ambion, Austin, Texas, USA). Stage V and VI oocytes were injected with 5 ng cRNA, incubated at 18 °C, and currents recorded 18–24 h post-injection.
(§3) Currents were recorded at 5 kHz and filtered at a frequency of 1 kHz. Micro-electrodes were fabricated from borosilicate glass (GC120TF-10, Harvard Apparatus, Edenbridge, Kent, UK) using a one stage horizontal pull (P-87, Sutter Instrument Company, California, USA) and filled with 3 M KCl. […] Oocytes were perfused with ND96 at a constant rate of 12 ml min^−1. Drug application was via a simple gravity fed system calibrated to run at the same rate.
(§4) Analysis and curve fitting was performed using Prism v5 (GraphPad Software, San Diego, California, USA). Concentration-response data for each oocyte was normalised to the maximum current for that oocyte. The mean and S.E.M. for a series of oocytes were fitted to the four parameter logistic equation in Prism.

[2] = biological target: T2, A20′S mutant Drosophila RDL receptor (Drosophila melanogaster, UniProt P25123, A319S)
T2 construct: expressed in transfected cells; host or cells: Xenopus laevis oocytes injected with cRNA
T2 sequence (P25123 45-606 A319S): T1 sequence (P25123 45-606 T305M) with M261T, A275S
Protocol: as §1, §2, §3, §4

[3] = biological target: T3, A21′Q mutant Drosophila RDL receptor (Drosophila melanogaster, UniProt P25123, A320Q)
T3 construct: expressed in transfected cells; host or cells: Xenopus laevis oocytes injected with cRNA
T3 sequence (P25123 45-606 A320Q): T1 sequence (P25123 45-606 T305M) with M261T, A276Q
Protocol: as §1, §2, §3, §4

In the case of NCCCC(=O)O [GABA], the “GABA nH (Hill slope)” value [1] is reported as 1.4 ± 0.2, the “GABA nH (Hill slope)” value [2] is reported as 1.6 ± 0.4 and the “GABA nH (Hill slope)” value [3] is reported as 1.9 ± 0.4.
